Test results from the supplement of paper PMC13380429.

What was measured:
Details in all cases: 72 h
Caco-2 [1] = test: relative viability EC50 (midpoint between 100% and the lowest measured viability); higher = less toxic
Vero E6 [2] = test: as above
U2OS [3] = test: as above
HepG2 [4] = test: as above
Caco-2 [5] = test: drug sensitivity score (DSS) for viability; higher = more toxic; extreme values may be limits of the assay
Vero E6 [6] = test: as above
U2OS [7] = test: as above
HepG2 [8] = test: as above
Caco-2 [9] = test: cell viability relative to DMSO; higher = less toxic
Vero E6 [10] = test: as above
U2OS [11] = test: as above
HepG2 [12] = test: as above
Calu-3 [13] = test: drug sensitivity score (DSS) for viability; higher = more toxic; extreme values may be limits of the assay
Calu-3 [14] = test: cell viability relative to DMSO; higher = less toxic

SMILES	relative viability EC50 (Caco-2 [1]) [µM]	relative viability EC50 (Vero E6 [2]) [µM]	relative viability EC50 (U2OS [3]) [µM]	relative viability EC50 (HepG2 [4]) [µM]	drug sensitivity score (Caco-2 [5])	drug sensitivity score (Vero E6 [6])	drug sensitivity score (U2OS [7])	drug sensitivity score (HepG2 [8])	cell viability (Caco-2 [9]; 1 nM) [%]	cell viability (Caco-2 [9]; 10 nM) [%]	cell viability (Caco-2 [9]; 100 nM) [%]	cell viability (Caco-2 [9]; 1000 nM) [%]	cell viability (Caco-2 [9]; 10000 nM) [%]	cell viability (Vero E6 [10]; 1 nM) [%]	cell viability (Vero E6 [10]; 10 nM) [%]	cell viability (Vero E6 [10]; 100 nM) [%]	cell viability (Vero E6 [10]; 1000 nM) [%]	cell viability (Vero E6 [10]; 10000 nM) [%]	cell viability (U2OS [11]; 1 nM) [%]	cell viability (U2OS [11]; 10 nM) [%]	cell viability (U2OS [11]; 100 nM) [%]	cell viability (U2OS [11]; 1000 nM) [%]	cell viability (U2OS [11]; 10000 nM) [%]	cell viability (HepG2 [12]; 1 nM) [%]	cell viability (HepG2 [12]; 10 nM) [%]	cell viability (HepG2 [12]; 100 nM) [%]	cell viability (HepG2 [12]; 1000 nM) [%]	cell viability (HepG2 [12]; 10000 nM) [%]	drug sensitivity score (Calu-3 [13])	cell viability (Calu-3 [14]; 1 nM) [%]	cell viability (Calu-3 [14]; 10 nM) [%]	cell viability (Calu-3 [14]; 100 nM) [%]	cell viability (Calu-3 [14]; 1000 nM) [%]	cell viability (Calu-3 [14]; 10000 nM) [%]
CC(=O)c1cnc2ccc(-c3cc(Cl)c(O)c(Cl)c3)nc2c1N[C@H]1CC[C@H](CN(C)C)CC1 [OTS167]	0.0765	0.0351	0.0295	0.0253	21.5	29.2	30.5	30.3	98.5	98.4	41.1	34.8	12	96.4	100	6.3	11.7	2.6	97.6	86.7	10.7	5.5	0	108	84.7	11.4	5.1	3.9	–	–	–	–	–	–
CSC[C@H](N)C(=O)O [S-methylcysteine]	> 10	> 10	> 10	> 10	0	0	0	0	79.7	105	86.5	101	97.3	92.8	93.6	97.1	96.3	105	101	98.7	104	98.1	102	89.3	100	95.6	92.3	99.3	–	–	–	–	–	–
NC(=O)CN1C=CCC(C(N)=O)=C1 [caricotamide]	> 10	> 10	–	> 10	0	0	–	0	113	103	103	97.7	104	101	95.4	99.5	99	101	–	–	–	–	–	93.2	103	104	116	106	–	–	–	–	–	–
CC/C=C(\C(=O)N[C@@H]1C(=O)N2C(C(=O)OCOC(=O)C(C)(C)C)=C(COC(N)=O)CS[C@H]12)c1csc(N)n1 [cefcapene-pivoxil]	> 10	> 10	> 10	> 10	0	0	0	3.3	104	101	117	113	94.4	109	94.7	110	111	102	97.2	106	98.5	103	103	107	93.8	89.7	78.8	86.4	–	–	–	–	–	–
CC(C)OC(=O)CNC(=O)[C@H](CS)NC(=O)CC[C@H](N)C(=O)O [glutathione-monoisopropyl-ester]	> 10	> 10	–	> 10	0	0	–	0	95.7	103	96.2	103	96.3	99.3	103	99.5	99.7	100	–	–	–	–	–	102	103	105	101	97.3	–	–	–	–	–	–
NC(=O)CCCCC1CCSS1 (configuration not stated) [lipoamide]	> 10	> 10	> 10	> 10	0	0	0	0	110	90.3	92.4	97.9	102	103	99.2	102	106	99.2	102	99.8	99.1	98.2	98	88.4	108	104	102	90.9	–	–	–	–	–	–
Fc1ccc(CNc2ncnc3ccc(F)cc23)cc1 [spautin-1]	–	> 10	> 10	1.98	2.4	0.1	0	5.9	99.7	98.9	96	91	69.3	102	96	96.6	89.5	89.1	92.2	97.4	101	95.5	96.7	99.2	102	104	88.8	26.3	2.8	97.3	90.2	100	88.6	70.1
